Read-outs that look alike come from different tables or passages of the source.
Experiments:
KM12 cells = assay: KM12 cell viability (CellTiter-Glo); type: cell-based; conditions: Homo sapiens, 72 h; KM12 cell viability, CellTiter-Glo, three days treatment; read-out: IC50
In short: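 KM12 cells seeded at 5000 per well in RPMI 1640 + 10% FBS and exposed 3 days to serial dilutions (11-point 3-fold, 8-point 3-fold from 1000 nM, or 12-point 2-fold). Viability by CellTiter-Glo; IC50 from least-squares nonlinear regression.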

TPM3-TRKA fusion protein = molecular target: T1, TPM3-TRKA fusion protein (Homo sapiens, UniProt P04629); assay: TPM3-TRKA fusion protein levels in KM12 cells (Western blot); type: cell-based; conditions: read-out: Degradation (at 10 nM)
T1 construct: The resulted chimeric proteins always retain the kinase domain of TRK proteins; TPM3 (fusion partner, N-terminal part of tropomyosin alpha-3, P06753); endogenous in cells; host or cells: KM12 colon cancer cells; the other entry of the earlier key: TPM3 (P06753, Tropomyosin alpha-3 chain)
In short: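 KM12 colon cancer cells were treated with DMSO or compounds at 0.1–100 nM, 0.4–30 nM or other stated concentrations for 4, 8–16 or 16 h. RIPA lysates were BCA-normalized and resolved by SDS-PAGE. TPM3-TRKA was detected by chemiluminescent Western blot, with bands quantified by densitometry.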

[1] = 16 h, TPM3-TRKA degradation in KM12 cells at 10 nM compound, category of percentage degradation

T1 sequence (P04629 with tags, fused parts or gaps): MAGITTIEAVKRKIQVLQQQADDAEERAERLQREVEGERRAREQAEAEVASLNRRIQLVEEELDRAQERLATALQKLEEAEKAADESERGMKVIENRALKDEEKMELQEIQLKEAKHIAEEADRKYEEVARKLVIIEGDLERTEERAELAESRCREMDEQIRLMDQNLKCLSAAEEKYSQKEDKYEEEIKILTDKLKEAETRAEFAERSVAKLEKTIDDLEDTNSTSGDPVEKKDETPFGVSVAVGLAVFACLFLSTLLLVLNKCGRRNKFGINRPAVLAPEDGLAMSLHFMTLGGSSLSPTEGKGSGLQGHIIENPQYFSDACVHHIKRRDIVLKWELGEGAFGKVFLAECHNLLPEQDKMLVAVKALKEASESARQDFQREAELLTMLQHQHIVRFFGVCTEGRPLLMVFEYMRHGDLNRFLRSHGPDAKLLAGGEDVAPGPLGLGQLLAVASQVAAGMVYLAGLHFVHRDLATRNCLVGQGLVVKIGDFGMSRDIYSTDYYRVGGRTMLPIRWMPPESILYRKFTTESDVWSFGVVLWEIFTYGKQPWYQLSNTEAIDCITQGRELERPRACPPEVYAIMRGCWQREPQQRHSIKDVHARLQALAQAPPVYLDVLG

SMILES	IC50 (KM12 cells) [nM]	percent degradation of TPM3-TRKA protein at 0.01 µM (TPM3-TRKA fusion protein; [1]) [%]	percent degradation of TPM3-TRKA protein at 0.01 µM (TPM3-TRKA fusion protein; KM12, 16 h) [%]
O=C1CCC(N2C(=O)c3ccc(N4CCOC(CN5CCN(c6cccc(-c7cnc8ccc(N9CCC[C@@H]9c9cccc(F)c9)nn78)n6)CC5)C4)cc3C2=O)C(=O)N1 (stereo partly drawn) [TR-286, 2-(2,6-dioxopiperidin-3-yl)-5-(2-((4-(6-(6-((R)-2-(3-fluorophenyl)pyrrolidin-1-yl)imidazo[1,2-b]pyridazin-3-yl)pyridin-2-yl)piperazin-1-yl)methyl)morpholino) isoindoline-1,3-dione]	7.8	> 80	
O=C1CCC(N2C(=O)c3ccc(N4CC(OC5CCN(c6cccc(-c7cnc8ccc(N9CCC[C@@H]9c9cccc(F)c9)nn78)n6)CC5)C4)cc3C2=O)C(=O)N1 (stereo partly drawn) [TR-287, 2-(2,6-dioxopiperidin-3-yl)-5-(3-((1-(6-(6-((R)-2˜ (3-fluorophenyl)pyrrolidin-1-yl)imidazo[1,2-b]pyridazin-3-yl)pyridin-2-yl)piperidin-4-yl)oxy)azetidin-1-yl)isoindoline-1,3-dione]	19.3	> 80	
O=C1CCC(N2C(=O)c3ccc(N4CC(NC5CCN(c6cccc(-c7cnc8ccc(N9CCC[C@@H]9c9cccc(F)c9)nn78)n6)CC5)C4)cc3C2=O)C(=O)N1 (stereo partly drawn) [TR-288, 2-(2,6-dioxopiperidin-3-yl)-5-(3-((1-(6-(6-((R)-2-(3-fluorophenyl)pyrrolidin-1-yl)imidazo[1,2-b]pyridazin-3-yl)pyridin-2-yl)piperidin-4-yl)amino)azetidin-1-yl)isoindoline-1,3-dione]	9.2		> 80
O=C1CCC(N2C(=O)c3ccc(NC4CCC(N5CCN(c6ccc(C(=O)Nc7n[nH]c8ccc(Cc9cc(F)cc(F)c9)cc78)c(NC7CCOCC7)c6)CC5)CC4)cc3C2=O)C(=O)N1 (stereo not drawn) [TR-289, N-(5-(3,5-Difluorobenzyl)-1H-indazol-3-yl)-4-(4-(4-((2-(2,6-dioxopiperidin-3-yl)-1,3-dioxoisoindolin-5-yl)amino)cyclohexyl)piperazin-1-yl)-2-((tetrahydro-2H-pyran-4-yl)amino)benzamide]	3.8	> 80	
O=C1CCC(N2C(=O)c3ccc(N4CCC5(CC(N6CCN(c7ccc(C(=O)Nc8n[nH]c9ccc(Cc%10cc(F)cc(F)c%10)cc89)c(NC8CCOCC8)c7)CC6)C5)C4)cc3C2=O)C(=O)N1 (stereo not drawn) [TR-290, N-(5-(3,5-difluorobenzyl)-1H-indazol-3-yl)-4-(4-(6-(2-(2,6-dioxopiperidin-3-yl)-1,3-dioxoisoindolin-5-yl)-6-azaspiro[3.4]octan-2-yl)piperazin-1-yl)-2-((tetrahydro-2H-pyran-4-yl)amino)benzamide]	11.2	> 80	
O=C1CCC(N2C(=O)c3ccc(C4CN(CCN5CCN(c6cccc(-c7cnc8ccc(N9CCC[C@@H]9c9cccc(F)c9)nn78)n6)CC5)C4)cc3C2=O)C(=O)N1 (stereo partly drawn) [TR-292, 2-(2,6-dioxopiperidin-3-yl)-5-(1-(2-(4-(6-(6-((R)-2-(3-fluorophenyl)pyrrolidin-1-yl)imidazo[1,2-b]pyridazin-3-yl)pyridin-2-yl)piperazin-1-yl)ethyl)azetidin-3-yl)isoindoline-1,3-dione]	8.2	> 80	
O=C1CCC(N2C(=O)c3ccc(C4CN(CC5CCN(c6cccc(-c7cnc8ccc(N9CCC[C@@H]9c9cccc(F)c9)nn78)n6)CC5)C4)cc3C2=O)C(=O)N1 (stereo partly drawn) [TR-293, 2-(2,6-dioxopiperidin-3-yl)-5-(1-((1-(6-(6-((R)-2-(3-fluorophenyl)pyrrolidin-1-yl)imidazo[1,2-b]pyridazin-3-yl)pyridin-2-yl)piperidin-4-yl)methyl)azetidin-3-yl)isoindoline-1,3-dione]	9.5	> 80	
O=C1CCC(N2C(=O)c3cccc(CN4CC(CN5CCN(c6cccc(-c7cnc8ccc(N9CCC[C@@H]9c9cccc(F)c9)nn78)n6)CC5)C4)c3C2=O)C(=O)N1 (stereo partly drawn) [TR-294, 2-(2,6-Dioxopiperidin-3-yl)-4-((3-((4-(6-(6-((R)-2-(3-fluorophenyl)pyrrolidin-1-yl)imidazo[1,2-b]pyridazin-3-yl)pyridin-2-yl)piperazin-1-yl)methyl)azetidin-1-yl)methyl)isoindoline-1,3-dione]	12.5	> 80	
Cc1nc2cccc(N3CC(CN4CCN(c5cccc(-c6cnc7ccc(N8CCC[C@@H]8c8cccc(F)c8)nn67)n5)CC4)C3)c2c(=O)n1C1CCC(=O)NC1=O (stereo partly drawn) [TR-295]	30	50 to 80	
O=C1CCC(n2nnc3cccc(N4CC(CN5CCN(c6cccc(-c7cnc8ccc(N9CCC[C@@H]9c9cccc(F)c9)nn78)n6)CC5)C4)c3c2=O)C(=O)N1 (stereo partly drawn) [TR-296]	22	50 to 80	
O=C1CCC(n2nnc3cccc(N4CC(CCN5CCN(c6cccc(-c7cnc8ccc(N9CCC[C@@H]9c9cccc(F)c9)nn78)n6)CC5)C4)c3c2=O)C(=O)N1 (stereo partly drawn) [TR-297]	39	50 to 80	
O=C1CCC(N2Cc3ccc(C#CCN4CCN(c5ccc(C(=O)Nc6n[nH]c7ccc(Cc8cc(F)cc(F)c8)cc67)c(NC6CCOCC6)c5)CC4)cc3C2=O)C(=O)N1 (stereo not drawn) [TR-298, N—(S-(3,5-Difluorobenzyl)-1H-indazol-3-yl)-4-(4-(3-(2-(2,6-dioxopiperidin-3-yl)-3-oxoisoindolin-5-yl)prop-2-yn-1-yl)piperazin-1-yl)-2-((tetrahydro-2/-pyran-4-yl)amino)benzamide]	30	> 80	
O=C1CCC(N2C(=O)c3ccc(NC4CCC(N5CCN(c6ccc(C(=O)Nc7n[nH]c8ccc(Cc9cc(F)cc(F)c9)cc78)c(NC7CCOCC7)c6)CC5)C4)cc3C2=O)C(=O)N1 (stereo not drawn) [TR-299, N-(5-(3,5-Difluorobenzyl)-1H-indazol-3-yl)-4-(4-(3-((2-(2,6-dioxopiperidin-3-yl)-1,3-dioxoisoindolin-S-yl)amino)cyclopentyl)piperazin-1-yl)-2-((tetrahydro-2/-pyran-4-yl)amino)benzamide]	23	> 80	
O=C1CCC(N2Cc3cc(N4CC(CN5CCN(c6ccc(C(=O)Nc7n[nH]c8ccc(Cc9cc(F)cc(F)c9)cc78)c(NC7CCOCC7)c6)CC5)C4)ccc3C2=O)C(=O)N1 (stereo not drawn) [TR-300, N—(S-(3,5-Difluorobenzyl)-1H-indazol-3-yl)-4-(4-((1˜ (2˜ (2,6-dioxopiperidin-3-yl)-1-oxoisoindolin-5-yl)azetidin-3-yl)methyl)piperazin-1-yl)-2-((tetrahydro-2H-pyran-4-yl)amino)benzamide]	53	50 to 80	
CC(C1CN(c2ccc3c(c2)C(=O)N(C2CCC(=O)NC2=O)C3=O)C1)N1CCN(c2ccc(C(=O)Nc3n[nH]c4ccc(Cc5cc(F)cc(F)c5)cc34)c(NC3CCOCC3)c2)CC1 (stereo not drawn) [TR-301, N-(5-(3,5-difluorobenzyl)-1H-indazol-3-yl)-4-(4-(1-(1-(2-(2,6-dioxopiperidin-3-yl)-1,3-dioxoisoindolin-5-yl)azetidin-3-yl)ethyl)piperazin-1-yl)-2-((tetrahydro-2H-pyran-4-yl)amino)benzamide]	6	> 80	

Source: patent publication US12410171B2, “Tropomyosin receptor kinase (TRK) degradation compounds and methods of use” (Cullgen (Shanghai), Inc., priority 2020, dated 2025)
